Test results: patent US20150141381A1, “TETRACYCLINE COMPOUNDS HAVING TARGET THERAPEUTIC ACTIVITIES” (Paratek Pharmaceuticals, Inc., priority 2001, published 2015)

Legend:
S. aureus RN450 = experiment: In Vitro Anti-Bacterial Activity Assay (MIC), gram positive; type: cell-based; settings: Staphylococcus aureus, RN450, 18 h, gram positive bacteria; read-out: Antibiotic Activity Gram + (MIC)
E. coli mL308 225 = experiment: In Vitro Anti-Bacterial Activity Assay (MIC), gram negative; type: cell-based; settings: Escherichia coli, ML308225, 18 h, gram negative bacteria; read-out: Antibiotic Activity Gram − (MIC)

Row | Structure (SMILES) | MIC (S. aureus RN450) [µg/mL] | MIC (E. coli mL308 225) [µg/mL]
1 | CCOC(=O)CNCc1ccc(OC)c(-c2ccc(O)c3c2C[C@H]2C[C@H]4[C@H](N(C)C)C(O)=C(C(N)=O)C(=O)[C@@]4(O)C(O)=C2C3=O)c1 | < 4 | < 4
2 | CN(C)[C@@H]1C(O)=C(C(N)=O)C(=O)[C@@]2(O)C(O)=C3C(=O)c4c(O)ccc(-c5ccc(C(=O)Cl)c6ccccc56)c4C[C@H]3C[C@@H]12 | < 4 | > 4
3 | Cc1cc(C(C)(C)C)c(O)c2c1C[C@H]1C[C@H]3[C@H](N(C)C)C(O)=C(C(N)=O)C(=O)[C@@]3(O)C(O)=C1C2=O | < 4 | > 4
4 | CC(C)COC(=O)NCc1ccc(-c2ccc(O)c3c2C[C@H]2C[C@H]4[C@H](N(C)C)C(O)=C(C(N)=O)C(=O)[C@@]4(O)C(O)=C2C3=O)cc1 | < 4 | > 4
5 | CN(C)[C@@H]1C(O)=C(C(N)=O)C(=O)[C@@]2(O)C(O)=C3C(=O)c4c(O)c(C(C)(C)C)cc(-c5ccc6c(c5)OCO6)c4C[C@H]3C[C@@H]12 | > 4 | > 4
6 | COc1ccc(CN(C)C)cc1-c1cc(C(C)(C)C)c(O)c2c1C[C@H]1C[C@H]3[C@H](N(C)C)C(O)=C(C(N)=O)C(=O)[C@@]3(O)C(O)=C1C2=O | < 4 | > 4
7 | CC(C)OC(=O)c1cccc(-c2ccc(O)c3c2C[C@H]2C[C@H]4[C@H](N(C)C)C(O)=C(C(N)=O)C(=O)[C@@]4(O)C(O)=C2C3=O)c1 | < 4 | < 4
8 | CN(C)c1ccc(-c2cc(C(C)(C)C)c(O)c3c2C[C@H]2C[C@H]4[C@H](N(C)C)C(O)=C(C(N)=O)C(=O)[C@@]4(O)C(O)=C2C3=O)cc1 | > 4 | > 4
9 | CN(C)CC(=O)NCc1ccc(-c2ccc(O)c3c2C[C@H]2C[C@H]4[C@H](N(C)C)C(O)=C(C(N)=O)C(=O)[C@@]4(O)C(O)=C2C3=O)cc1 | < 4 | > 4
10 | CC(C)CNC(=O)Nc1ccc(-c2ccc(O)c3c2C[C@H]2C[C@H]4[C@H](N(C)C)C(O)=C(C(N)=O)C(=O)[C@@]4(O)C(O)=C2C3=O)cc1 | < 4 | < 4
11 | CN(C)[C@@H]1C(O)=C(C(N)=O)C(=O)[C@@]2(O)C(O)=C3C(=O)c4c(O)ccc(-c5ccc(CNCCc6ccc(Cl)cc6)cc5)c4C[C@H]3C[C@@H]12 | < 4 | < 4
12 | CN(C)[C@@H]1C(O)=C(C(N)=O)C(=O)[C@@]2(O)C(O)=C3C(=O)c4c(O)ccc(-c5ccc(CNCc6cccc(Cl)c6)cc5)c4C[C@H]3C[C@@H]12 | < 4 | < 4
13 | CC(C)c1cccc(-c2ccc(O)c3c2C[C@H]2C[C@H]4[C@H](N(C)C)C(O)=C(C(N)=O)C(=O)[C@@]4(O)C(O)=C2C3=O)c1 | < 4 | < 4
14 | Cc1cc(-c2ccc(O)c3c2C[C@H]2C[C@H]4[C@H](N(C)C)C(O)=C(C(N)=O)C(=O)[C@@]4(O)C(O)=C2C3=O)ccc1F | < 4 | < 4
15 | CN(C)[C@@H]1C(O)=C(C(N)=O)C(=O)[C@@]2(O)C(O)=C3C(=O)c4c(O)ccc(-c5ccc(CN6CCOCC6)c6ccccc56)c4C[C@H]3C[C@@H]12 | < 4 | < 4
16 | CCCN(CCC)Cc1ccc(-c2ccc(O)c3c2C[C@H]2C[C@H]4[C@H](N(C)C)C(O)=C(C(N)=O)C(=O)[C@@]4(O)C(O)=C2C3=O)c2ccccc12 | < 4 | < 4
17 | CCOC(=O)CNCc1ccc(-c2ccc(O)c3c2C[C@H]2C[C@H]4[C@H](N(C)C)C(O)=C(C(N)=O)C(=O)[C@@]4(O)C(O)=C2C3=O)c2ccccc12 | < 4 | < 4
18 | O=c1cc(-c2ccc(F)cc2)oc2ccccc12 | < 4 | < 4
19 | CN(C)CCC(=O)c1cc(C(C)(C)C)c(O)c2c1C[C@H]1C[C@H]3[C@H](N(C)C)C(O)=C(C(N)=O)C(=O)[C@@]3(O)C(O)=C1C2=O | < 4 | < 4
20 | CN(C)[C@@H]1C(O)=C(C(N)=O)C(=O)[C@@]2(O)C(O)=C3C(=O)c4c(O)c(C(C)(C)C)cc(-c5cnc6ccccc6c5)c4C[C@H]3C[C@@H]12 | > 4 | > 4
21 | CN(C)c1ccc(-c2cc(I)c(O)c3c2C[C@H]2C[C@H]4[C@H](N(C)C)C(O)=C(C(N)=O)C(=O)[C@@]4(O)C(O)=C2C3=O)cc1 | < 4 | > 4
22 | C[C@H]1c2ccc(-c3ccc(N(C)C)cc3)c(O)c2C(=O)C2=C(O)[C@]3(O)C(=O)C(C(N)=O)=C(O)[C@@H](N(C)C)[C@@H]3[C@@H](O)[C@@H]21 | < 4 | < 4
23 | CCCOC(=O)Nc1ccc(-c2ccc(O)c3c2C[C@H]2C[C@H]4[C@H](N(C)C)C(O)=C(C(N)=O)C(=O)[C@@]4(O)C(O)=C2C3=O)cc1 | < 4 | < 4
24 | CN(C)CCNC(=O)c1ccc(-c2ccc(O)c3c2C[C@H]2C[C@H]4[C@H](N(C)C)C(O)=C(C(N)=O)C(=O)[C@@]4(O)C(O)=C2C3=O)cc1 | < 4 | > 4

Row | Structure (SMILES) | MIC (S. aureus RN450) [µg/mL] | MIC (E. coli mL308 225) [µg/mL]
25 | CCc1cc(-c2ccc(N(C)C)cc2)c2c(c1O)C(=O)C1=C(O)[C@]3(O)C(=O)C(C(N)=O)=C(O)[C@@H](N(C)C)[C@@H]3C[C@@H]1C2 | < 4 | < 4
26 | CN(C)[C@@H]1C(O)=C(C(N)=O)C(=O)[C@@]2(O)C(O)=C3C(=O)c4c(O)ccc(-c5ccc(NC(=O)OC(C)(C)C)cc5)c4C[C@H]3C[C@@H]12 | < 4 | < 4
27 | CN(C)CCNC(=O)c1cccc(-c2ccc(O)c3c2C[C@H]2C[C@H]4[C@H](N(C)C)C(O)=C(C(N)=O)C(=O)[C@@]4(O)C(O)=C2C3=O)c1 | < 4 | > 4
28 | Cc1ccc(-c2ccc(O)c3c2C[C@H]2C[C@H]4[C@H](N(C)C)C(O)=C(C(N)=O)C(=O)[C@@]4(O)C(O)=C2C3=O)cc1N | < 4 | < 4
29 | CN(C)[C@@H]1C(O)=C(C(N)=O)C(=O)[C@@]2(O)C(O)=C3C(=O)c4c(O)ccc(-c5ccc(CO)cc5)c4C[C@H]3C[C@@H]12 | < 4 | < 4
30 | CN(C)[C@@H]1C(O)=C(C(N)=O)C(=O)[C@@]2(O)C(O)=C3C(=O)c4c(O)ccc(-c5ccc(F)c(C=O)c5)c4C[C@H]3C[C@@H]12 | < 4 | < 4
31 | CN(C)[C@@H]1C(O)=C(C(N)=O)C(=O)[C@@]2(O)C(O)=C3C(=O)c4c(O)ccc(-c5cc(F)cc(F)c5)c4C[C@H]3C[C@@H]12 | < 4 | < 4
32 | C[C@H]1c2ccc(-c3ccc(C=O)c4ccccc34)c(O)c2C(=O)C2=C(O)[C@]3(O)C(=O)C(C(N)=O)=C(O)[C@@H](N(C)C)[C@@H]3[C@@H](O)[C@@H]21 | < 4 | < 4
33 | C[C@H]1c2ccc(-c3ccc(C=O)cc3)c(O)c2C(=O)C2=C(O)[C@]3(O)C(=O)C(C(N)=O)=C(O)[C@@H](N(C)C)[C@@H]3[C@@H](O)[C@@H]21 | < 4 | < 4
34 | C[C@H]1c2ccc(-c3cccc(C=O)c3)c(O)c2C(=O)C2=C(O)[C@]3(O)C(=O)C(C(N)=O)=C(O)[C@@H](N(C)C)[C@@H]3[C@@H](O)[C@@H]21 | < 4 | < 4
35 | COc1ccc(-c2ccc3c(c2O)C(=O)C2=C(O)[C@]4(O)C(=O)C(C(N)=O)=C(O)[C@@H](N(C)C)[C@@H]4[C@@H](O)[C@@H]2[C@H]3C)cc1CC1CCCC1 | > 4 | > 4
36 | CNCOc1ccc(-c2ccc(O)c3c2C[C@H]2C[C@H]4[C@H](N(C)C)C(O)=C(C(N)=O)C(=O)[C@@]4(O)C(O)=C2C3=O)cc1 | < 4 | < 4
37 | CC(=O)c1cc(C(C)(C)C)c(O)c2c1C[C@H]1C[C@H]3[C@H](N(C)C)C(O)=C(C(N)=O)C(=O)[C@@]3(O)C(O)=C1C2=O | < 4 | < 4
38 | CN(C)c1cc(CCC2(O)CCCC2)c(O)c2c1C[C@H]1C[C@H]3[C@H](N(C)C)C(O)=C(C(N)=O)C(=O)[C@@]3(O)C(O)=C1C2=O | > 4 | > 4
39 | C[C@H]1c2c(-c3ccccc3)cc(-c3ccccc3)c(O)c2C(=O)C2=C(O)[C@]3(O)C(=O)C(C(N)=O)=C(O)[C@@H](N(C)C)[C@@H]3[C@@H](O)[C@@H]21 | < 4 | < 4
40 | CO/N=C/c1ccc(OC)c(-c2ccc(O)c3c2C[C@H]2C[C@H]4[C@H](N(C)C)C(O)=C(C(N)=O)C(=O)[C@@]4(O)C(O)=C2C3=O)c1 | < 4 | < 4
41 | C=C(Cl)c1cc(C(C)(C)C)c(O)c2c1C[C@H]1C[C@H]3[C@H](N(C)C)C(O)=C(C(N)=O)C(=O)[C@@]3(O)C(O)=C1C2=O | < 4 | < 4
42 | CN(C)[C@@H]1C(O)=C(C(N)=O)C(=O)[C@@]2(O)C(O)=C3C(=O)c4c(O)ccc(-c5ccc(F)c(F)c5)c4C[C@H]3C[C@@H]12 | < 4 | < 4
43 | C[C@H]1c2ccc(-c3cc4ccccc4s3)c(O)c2C(=O)C2=C(O)[C@]3(O)C(=O)C(C(N)=O)=C(O)[C@@H](N(C)C)[C@@H]3[C@@H](O)[C@@H]21 | < 4 | < 4
44 | CC(=O)c1ccc(-c2ccc3c(c2O)C(=O)C2=C(O)[C@]4(O)C(=O)C(C(N)=O)=C(O)[C@@H](N(C)C)[C@@H]4[C@@H](O)[C@@H]2[C@H]3C)cc1 | < 4 | < 4
45 | COC(=O)C(CO)NC(=O)c1cccc(-c2ccc(O)c3c2C[C@H]2C[C@H]4[C@H](N(C)C)C(O)=C(C(N)=O)C(=O)[C@@]4(O)C(O)=C2C3=O)c1 (stereo partly shown) | < 4 | > 4
46 | CC(=O)CCC(=O)Nc1ccc2c(c1O)C(=O)C1=C(O)[C@]3(O)C(=O)C(C(N)=O)=C(O)[C@@H](N(C)C)[C@@H]3C[C@@H]1C2 | > 4 | > 4
47 | CONC(=O)c1cccc(-c2ccc(O)c3c2C[C@H]2C[C@H]4[C@H](N(C)C)C(O)=C(C(N)=O)C(=O)[C@@]4(O)C(O)=C2C3=O)c1 | < 4 | > 4
